Literature values in patent US20190298669A1 (priority 2018, published 2019).

Experiments:
[1] = human, in vivo; cited from earlier work
[2] = test system: viral RNP complexes; settings: Pleschka et al., 2001; cited from earlier work

Structure (SMILES)	patients experiencing nausea and vomiting [1]	nuclear cytoplasmic transport of viral RNP complexes [2]
CCOC(=O)C1=C[C@@H](OC(CC)CC)[C@H](NC(C)=O)[C@@H](N)C1 [oseltamivir]	10-15%	–
N#CC(=C(/N)Sc1ccccc1N)/C(C#N)=C(\N)Sc1ccccc1N [U0126]	–	leads to a blockade
